{
  "source": "patent US20100240084A1",
  "about": "“USE OF THE PROTIEN MABA (FABG1) OF MYCOBACTERIUM TUBERCULOSIS FOR DESIGNING AND SCREENING ANTIBIOTICS” (priority 2002, published 2010)",
  "key": {"[1]": {"conditions": "aqueous solutions; Constantinides & Steim, 1985; cited from earlier work"}, "protein MabA [2]": {"target": "T1, protein MabA (Mycobacterium tuberculosis, UniProt P9WGT3)", "T1 sequence (P9WGT3 whole entry, looked up)": "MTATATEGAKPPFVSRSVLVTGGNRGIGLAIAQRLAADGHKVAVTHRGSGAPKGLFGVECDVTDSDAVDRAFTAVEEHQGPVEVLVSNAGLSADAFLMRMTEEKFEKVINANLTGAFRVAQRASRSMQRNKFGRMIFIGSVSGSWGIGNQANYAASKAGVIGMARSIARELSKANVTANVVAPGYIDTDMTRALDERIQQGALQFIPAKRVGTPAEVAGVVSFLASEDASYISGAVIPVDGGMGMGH", "test": "MabA enzymatic kinetics test (NADPH oxidation at 340 nm)"}, "InhA [3]": {"target": "T2, InhA (Mycobacterium tuberculosis, UniProt P9WGR1)", "T2 sequence (P9WGR1 whole entry, looked up)": "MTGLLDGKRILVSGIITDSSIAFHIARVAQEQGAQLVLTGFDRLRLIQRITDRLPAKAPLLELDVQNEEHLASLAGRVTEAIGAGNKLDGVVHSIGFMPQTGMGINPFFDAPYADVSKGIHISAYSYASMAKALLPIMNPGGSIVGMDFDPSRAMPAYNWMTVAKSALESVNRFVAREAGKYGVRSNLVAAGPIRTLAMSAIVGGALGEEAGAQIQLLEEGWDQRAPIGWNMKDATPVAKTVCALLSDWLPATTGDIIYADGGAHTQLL", "conditions": "cited from earlier work"}, "protein MabA [4]": {"target": "T1, protein MabA", "test": "Inhibition of the β-ketoacyl reductase activity of MabA after preincubation with antibiotic, NADPH and MnCl2", "format": "biochemical"}, "InhA [5]": {"target": "T2, InhA", "conditions": "100 μM ETH, in the presence of MnCl2 and NADH"}, "[6]": {"tested_on": "CC(=O)CC(=O)SCCNC(=O)CCNC(=O)[C@H](O)C(C)(C)COP(=O)(O)OP(=O)(O)OC[C@H]1O[C@@H](n2cnc3c(N)ncnc32)[C@H](O)[C@@H]1OP(=O)(O)O", "test": "purified protein, by the assay type"}, "[7]": {"tested_on": "CCCCCCCCCCC(=O)C(=O)SCCNC(=O)CCNC(=O)[C@H](O)C(C)(C)COP(=O)(O)OP(=O)(O)OC[C@H]1O[C@@H](n2cnc3c(N)ncnc32)[C@H](O)[C@@H]1OP(=O)(O)O", "test": "purified protein, by the assay type"}, "[8]": {"tested_on": "CCCCCCC(=O)C(=O)SCCNC(=O)CCNC(=O)[C@H](O)C(C)(C)COP(=O)(O)OP(=O)(O)OC[C@H]1O[C@@H](n2cnc3c(N)ncnc32)[C@H](O)[C@@H]1OP(=O)(O)O", "test": "purified protein, by the assay type"}, "β-ketoacyl reductase": {"target": "β-ketoacyl reductase", "conditions": "Kikuchi et al., 1989, cited from earlier work"}, "enoyl-reductase": {"target": "enoyl-reductase", "conditions": "Kikuchi et al., 1989, cited from earlier work"}, "[9]": {"conditions": "other: section 4.1, 25° C., 80 mM sodium phosphate, NADPH Km at 460 μM acetoacetyl-CoA, β-ketoacyl-CoA Km at 100 μM NADPH"}},
  "data": [
    {"compound": "CCCCCCCCCCCCCCCC(=O)SCCNC(=O)CCNC(=O)[C@H](O)C(C)(C)COP(=O)(O)OP(=O)(O)OC[C@H]1O[C@@H](n2cnc3c(N)ncnc32)[C@H](O)[C@@H]1OP(=O)(O)O", "note": "[palmitoyl-CoA]", "values": [
      {"measurement": "CMC (critical micellar concentration)", "setting": "[1]", "value": 70, "unit": "µM"}
    ]},
    {"compound": "NC(=O)C1=CN([C@@H]2O[C@H](COP(=O)(O)OP(=O)(O)OC[C@H]3O[C@@H](n4cnc5c(N)ncnc54)[C@H](O)[C@@H]3O)[C@@H](O)[C@H]2O)C=CC1", "note": "[NADH]", "values": [
      {"measurement": "MabA activity on substitution of NADPH by NADH", "setting": "protein MabA [2]; NADH at the same concentration as NADPH in the kinetics test", "value": "total loss of the activity"},
      {"measurement": "Km", "setting": "InhA [3]; comparison value for InhA, read-out: Km of the protein InhA for its cofactor", "value": 8, "unit": "µM"}
    ]},
    {"compound": "CCc1cc(C(N)=S)ccn1", "note": "[ETH, ethionamide]", "values": [
      {"measurement": "effect on the activity of MabA", "setting": "protein MabA [4]; 100 μM ETH, conditions of inhibition by INH, same result as InhA (activity unchanged)", "value": "same result"},
      {"measurement": "effect on the activity of InhA", "setting": "InhA [5]", "value": "unchanged"}
    ]},
    {"compound": "protein MabA (Mycobacterium tuberculosis H37Rv)", "values": [
      {"measurement": "Km", "setting": "[6]; 25.0 °C", "value": "1530 ± 81", "unit": "µM"},
      {"measurement": "kcat", "setting": "[6]; 25.0 °C", "value": "1.9 ± 0.0", "unit": "s⁻¹"},
      {"measurement": "Km", "setting": "[6]; [9]", "value": 1582, "unit": "µM"},
      {"measurement": "Km", "setting": "[7]; 25.0 °C", "value": "8.3 ± 0.8", "unit": "µM"},
      {"measurement": "kcat", "setting": "[7]; 25.0 °C", "value": "4.3 ± 0.2", "unit": "s⁻¹"},
      {"measurement": "Km", "setting": "[7]; [9]", "value": 9, "unit": "µM"},
      {"measurement": "Km", "setting": "[8]; 25.0 °C", "value": "70 ± 8", "unit": "µM"},
      {"measurement": "kcat", "setting": "[8]; 25.0 °C", "value": "3.5 ± 0.0", "unit": "s⁻¹"},
      {"measurement": "Km", "setting": "[8]; [9]", "value": 60, "unit": "µM"}
    ]},
    {"compound": "NADPH", "values": [
      {"measurement": "Km", "setting": "protein MabA [2]; read-out: Km of MabA, section 4.1, 25° C., 80 mM sodium phosphate, NADPH Km at 460 μM acetoacetyl-CoA, β-ketoacyl-CoA Km at 100 μM NADPH", "value": 39, "unit": "µM"}
    ]},
    {"compound": "C/C=C/C(=O)SCCNC(=O)CCNC(=O)[C@H](O)C(C)(C)COP(=O)(O)OP(=O)(O)OC[C@H]1O[C@@H](n2cnc3c(N)ncnc32)[C@H](O)[C@@H]1OP(=O)(O)O", "note": "[crotonoyl-CoA]", "values": [
      {"measurement": "activity of InhA in the presence of the 4-carbon substrate", "setting": "InhA [3]; even at 8 mM, Quémard et al., 1995", "value": "no activity"}
    ]},
    {"compound": "NNC(=O)c1ccncc1", "note": "[isoniazid, isonicotinic acid hydrazide]", "values": [
      {"measurement": "inhibition of the activity of MabA compared with the control without INH", "setting": "protein MabA [4]; 100 μM INH, MabA 150 nM preincubated 2 hours with 100 μM NADPH and 1 μM MnCl2, acetoacetyl-CoA substrate", "value": "44±3", "unit": "%"},
      {"measurement": "inhibition at 2000 µM", "setting": "protein MabA [4]; 2 mM isoniazid, MabA 150 nM preincubated 2 hours with 100 μM NADPH and 1 μM MnCl2, acetoacetyl-CoA substrate", "value": "62 ± 6", "unit": "%"},
      {"measurement": "effect of INH on the activity of MabA in the absence of MnCl2", "setting": "protein MabA [4]; absence of MnCl2 in the reaction", "value": "non-significant reduction"},
      {"measurement": "Ki", "setting": "β-ketoacyl reductase", "value": 353, "unit": "µM"},
      {"measurement": "inhibition of β-ketoacyl reductase", "setting": "β-ketoacyl reductase; isoniazid 2 mM", "value": 93, "unit": "%"},
      {"measurement": "Ki", "setting": "enoyl-reductase", "value": 5500, "unit": "µM"},
      {"measurement": "inhibition of enoyl-reductase", "setting": "enoyl-reductase; isoniazid 2 mM", "value": 26, "unit": "%"}
    ]},
    {"compound": "CCCCCCCCCCCCCCCCCC(=O)SCCNC(=O)CCNC(=O)[C@H](O)C(C)(C)COP(=O)(O)OP(=O)(O)OC[C@H]1O[C@@H](n2cnc3c(N)ncnc32)[C@H](O)[C@@H]1OP(=O)(O)O", "note": "[stearoyl-CoA]", "values": [
      {"measurement": "CMC (critical micellar concentration)", "setting": "[1]", "value": 12, "unit": "µM"}
    ]}
  ]
}
